Patent US7067112B2, “Cephaibols: novel antiparasitics from Acremonium tubakii, process for their production, and use thereof” (Sanofi-Aventis Deutschland GmbH, priority 1999, dated 2006)
Converted amounts (≈) assume the structure as drawn. Square brackets hold non-standard residues; d marks the D form. Peptide text beside a SMILES is read from it. Hyp = O=C(O)[CH]1C[CH](O)CN1; Phe(ol) = N[CH](CO)Cc1ccccc1; Iva = CC[C](C)(N)C(=O)O; Aib = CC(C)(N)C(=O)O

How the values were obtained:
[1] = test system: larvae of the chicken roundworm Ascaridia galli; experiment: larval development test (in vitro) for anthelmintic action; format: cell-based; settings: A. galli L2 larvae, 5 days medication
Description: For the testing of the action of the cephaibols on helminths, an in vitro test (larval development test) was carried out with larvae of the chicken roundworm Ascaridia galli. Embryonate eggs of A. galli were surface-sterilized by treatment with 5% strength sodium hypochlorite solution and, after removal of this solution, mechanically opened by means of rotating glass beads (5 mm). The hatched L2 larvae were enriched via larval enrichment processes, taken up in nutrient medium and incubated at 41° C. and 10% CO2.
48 hours after hatching, the larvae were incubated (41° C., 10% CO2) in microtiter plates (96 well) for 5 days with medicated medium (200 μl) in the concentrations 200, 100, 50 . . . 0.1 μg/ml. During the 5-day incubation period, motility, morphology, and vitality were checked microscopically and documented on a daily basis. After medication, the larval culture was incubated for 48 hours with Neutral Red in a concentration of 0.16%; after removal of the Neutral Red by change of medium, the enrichment of the vital dye in the intestine of the larvae was assessed as an index for active food intake and thus as proof of the vitality. The medication of the larvae with cephaibol A in the concentrations 200, 100, 50, and 25 μg/ml led to 100% mortality; at a concentration of 12.5 μg/ml and 6.25 μg/ml, the mortality was 92% and 20% respectively.

[2] = test system: cat flea=Ctenocephalides felis; experiment: flea larval test (action on ectoparasites); format: in vivo; settings: depending on the dose (2000, 1000, 500, 250 ppm etc. in blood meal), in comparison with the solvent control
Description: The action against ectoparasites was checked in the flea larval test (cat flea=Ctenocephalides felis). 5 mg of cephaibol A were dissolved in 0.5 ml of acetone and mixed into 500 mg of blood meal (defibrinated sheep blood). After the solvent had evaporated, 2 g of quartz sand were mixed with medicated blood meal such that preparation concentrations of 2000, 1000, 500, 250 ppm etc. resulted. 15 flea eggs per medicated sample or solvent control were added to the mixture of medicated blood meal and quartz sand, which was then incubated at 37° C. and high atmospheric humidity. The larval development, pupation and development to the adult stage were checked at an interval of 3–5 days and the mortality rates were documented.

[3] = test system: Enterococcus hirae ATCC 10541; experiment: minimal inhibitory concentration (MIC); format: cell-based
[4] = test system: Enterococcus faecalis ATCC 29212; experiment: minimal inhibitory concentration (MIC); format: cell-based
[5] = test system: Enterobacter cloacae P 99; experiment: minimal inhibitory concentration (MIC); format: cell-based
[6] = test system: Enterobacter cloacae 1321 E; experiment: minimal inhibitory concentration (MIC); format: cell-based
Escherichia coli TEM = experiment: minimal inhibitory concentration (MIC); format: cell-based
Escherichia coli 1507 E = experiment: minimal inhibitory concentration (MIC); format: cell-based
Escherichia coli DC 0 = experiment: minimal inhibitory concentration (MIC); format: cell-based
Escherichia coli DC 2 = experiment: minimal inhibitory concentration (MIC); format: cell-based
[7] = test system: Escherichia coli ATCC 25922; experiment: minimal inhibitory concentration (MIC); format: cell-based
[8] = test system: Klebsiella aerogenes 1082 E; experiment: minimal inhibitory concentration (MIC); format: cell-based
[9] = test system: Klebsiella oxytoca 1522 E; experiment: minimal inhibitory concentration (MIC); format: cell-based
[10] = test system: Pseudomonas aeruginosa 77/2; experiment: minimal inhibitory concentration (MIC); format: cell-based
[11] = test system: Pseudomonas aeruginosa 1771; experiment: minimal inhibitory concentration (MIC); format: cell-based
[12] = test system: Pseudomonas aeruginosa 1771 M; experiment: minimal inhibitory concentration (MIC); format: cell-based
[13] = test system: Pseudomonas aeruginosa ATCC 9027; experiment: minimal inhibitory concentration (MIC); format: cell-based
[14] = test system: Pseudomonas aeruginosa ATCC 27853; experiment: minimal inhibitory concentration (MIC); format: cell-based
[15] = test system: Staphylococcus aureus 285; experiment: minimal inhibitory concentration (MIC); format: cell-based
[16] = test system: Staphylococcus aureus ATCC 29213; experiment: minimal inhibitory concentration (MIC); format: cell-based
[17] = test system: Streptococcus pyogenes 308 A; experiment: minimal inhibitory concentration (MIC); format: cell-based
[18] = test system: Streptococcus pyogenes 77 A; experiment: minimal inhibitory concentration (MIC); format: cell-based
[19] = test system: Bordetella bronchiseptica ATCC 4617; experiment: minimal inhibitory concentration (MIC); format: cell-based
[20] = test system: Pasteurella multocida 3;tox.pos.; experiment: minimal inhibitory concentration (MIC); format: cell-based
[21] = test system: Pasteurella haemolytica 7; experiment: minimal inhibitory concentration (MIC); format: cell-based
[22] = test system: Bordetella bronchiseptica 9; experiment: minimal inhibitory concentration (MIC); format: cell-based
[23] = test system: Bordetella bronchiseptica 10; experiment: minimal inhibitory concentration (MIC); format: cell-based
[24] = test system: Pasteurella multocida P 48; experiment: minimal inhibitory concentration (MIC); format: cell-based
[25] = test system: Pasteurella haemolytica P 53; experiment: minimal inhibitory concentration (MIC); format: cell-based
Mycoplasma gallisepticum = experiment: minimal inhibitory concentration (MIC); format: cell-based
[26] = solubility (physicochemical properties)
Description: (§1) The physicochemical and spectroscopic properties of the cephaibols according to the invention can be summarized as follows: […]

[27] = stability (physicochemical properties); settings: in neutral, mildly acidic and mildly alkaline medium
Description: as §1

CCC(C)(NC(=O)C(CC(C)C)NC(=O)CNC(=O)C(C)(C)NC(=O)C(C)(C)NC(=O)C(C)(C)NC(=O)C(C)(C)NC(=O)C(Cc1ccccc1)NC(C)=O)C(=O)NC(C)(C)C(=O)N1CC(O)CC1C(=O)NC(CCC(N)=O)C(=O)NC(C)(CC)C(=O)N1CC(O)CC1C(=O)NC(C)(C)C(=O)N1CCCC1C(=O)NC(CO)Cc1ccccc1 (stereo not drawn) [Cephaibol A, AcPhe-Aib-Aib-Aib-Aib-Gly-Leu-Iva-Aib-Hyp-Gln-Iva-Hyp-Aib-Pro-Phe-ol] (Ac-F[Aib][Aib][Aib][Aib]GL[Iva][Aib][Hyp]Q[Iva][Hyp][Aib]P[Phe(ol)]; configuration not given here)
mortality ([1]; 6.25 μg/ml): 20% | mortality ([1]; 12.5 μg/ml): 92% | mortality ([1]; 25 μg/ml): 100% | mortality ([1]; 50 μg/ml): 100% | mortality ([1]; 100 μg/ml): 100% | mortality ([1]; 200 μg/ml): 100% | larvicidal action [2]: > 90% | MIC [3]: 64 µg/mL (≈ 38.3 µM) | MIC [4]: 64 µg/mL (≈ 38.3 µM) | MIC [5]: >128 µg/mL | MIC [6]: >128 µg/mL | MIC (Escherichia coli TEM): >128 µg/mL | MIC (Escherichia coli 1507 E): >128 µg/mL | MIC (Escherichia coli DC 0): >128 µg/mL | MIC (Escherichia coli DC 2): >128 µg/mL | MIC [7]: >128 µg/mL | MIC [8]: >128 µg/mL | MIC [9]: >128 µg/mL | MIC [10]: >128 µg/mL | MIC [11]: >128 µg/mL | MIC [12]: >128 µg/mL | MIC [13]: >128 µg/mL | MIC [14]: >128 µg/mL | MIC [15]: 8 µg/mL (≈ 4.79 µM) | MIC [16]: 16 µg/mL (≈ 9.58 µM) | MIC [17]: 32 µg/mL (≈ 19.2 µM) | MIC [18]: >128 µg/mL | MIC [19]: >128 µg/mL | MIC [20]: >128 µg/mL | MIC [21]: >128 µg/mL | MIC [22]: >128 µg/mL | MIC [23]: >128 µg/mL | MIC [24]: >128 µg/mL | MIC [25]: >128 µg/mL | MIC (Mycoplasma gallisepticum): 64 µg/mL (≈ 38.3 µM) | solubility in polar organic solvents ([26]; polar organic solvents): soluble | solubility in water ([26]; water): only slightly soluble | stability [27]: stable | MIC (Mycoplasma mycoides LC): 128 µg/mL (≈ 76.6 µM) | MIC (Mycoplasma mycoides L): 64 µg/mL (≈ 38.3 µM)
